Measurements: patent US9464049B2, “Indole-carboxamides” (Hoffmann-La Roche Inc., priority 2013, dated 2016)

How the values were obtained:
[1] = test system: human embryonic stem cell derived neural stem cells (NSCs); experiment: Neural stem cell proliferation assay (neurogenesis assay, ATP levels by CellTiterGlo); type: cell-based; details: Homo sapiens, Neural stem cell, 96 h; compound concentration at which 150% activity of control (100%) is reached; NSC proliferation by ATP (CellTiterGlo) after 4 days incubation; dose response 8 μM to 8 nM
Method: Neural Stem Cell Proliferation Assay
Neurogenic properties of small molecules are determined based on the proliferation of human embryonic stem cell derived neural stem cells (NSCs) which were derived via a dual smad inhibition as previously described (Chambers, S. M., et al., Highly efficient neural conversion of human ES and iPS cells by dual inhibition of SMAD signaling, Nature biotechnology, 2009. 27(3): p. 275-80.)
Compounds respond is measured by the increase in cells based on ATP levels (Promega:CellTiterGlo®) after an incubation period of 4 days.
NSCs are thawed and expanded over 3 passages. On the 14th day, NSCs are seeded in Polyornithin/Laminin coated 384 well plates at a cell density of 21,000 cells/cm^2 in a media volume of 38 μl.
4 hours after cell seeding, compound solutions are added at a volume of 2 μl. Stock solutions of the compounds (water, 5% DMSO) are diluted to obtain a dose response (11 points, dilution factor is 2), ranging from 8 μM to 8 nM. Controls are run to consistently determine the neurogenic properties of the cells: • Negative (neutral) control is cell culture Media (final DMSO concentration: 0.25%). • Positive controls are: • 1. cell culture Media+100 ng/ml FGF2 (final DMSO concentration: 0.1%) • 2. cell culture Media+20 ng/ml EGF (final DMSO concentration: 0.1%) • 3. cell culture Media+100 ng/ml Wnt3a (final DMSO concentration: 0.1%)
After 4 days incubation at 37° C., 5% CO2, the amount of ATP per well is quantified. The ATP concentration is proportional to the cell number. ATP is quantified by using the Promega CellTiterGlo® kit. The CellTiterGlo® reagents contain a cell lysis buffer, a thermo stable luciferase (UltraGlo™ recombinant luciferase), magnesium and luciferin. Luciferin reacts with ATP producing oxyluciferin, AMP and light. The luminescence signal is proportional to the ATP content.
The value of negative (neutral) control is determined for each assay plate by taking the average of 16 negative control wells. The neurogenic compound response is calculated for each compound as (compound/Negative Control)*100.
The values of EC150 from the dose response curve are determined for each test compound. The EC150 is the compound concentration at which 150% activity of control (100%) is reached.

Row | Structure (SMILES) | EC (150% of control) [1] [µM] | melting point [°C]
1 | N#Cc1cc(-c2ccc(Cl)cc2)c2[nH]c(C(N)=O)cc2c1 [Example 35, 7-(4-Chlorophenyl)-5-cyano-1H-indole-2-carboxamide] | 0.021 | 267.5
2 | N#Cc1cc(-c2ccc(C(F)(F)F)cc2)c2[nH]c(C(N)=O)cc2c1 [Example 36, 5-Cyano-7-[4-(trifluoromethyl)phenyl]-1H-indole-2-carboxamide] | 0.1 | 277.5
3 | Cn1c(C(N)=O)cc2cc(C#N)cc(-c3ccc(C(F)(F)F)cc3)c21 [Example 37, 5-Cyano-1-methyl-7-[4-(trifluoromethyl)-phenyl]-indole-2-carboxamide] | 2.62 | 171
4 | Cn1c(C(N)=O)cc2cc(C#N)cc(-c3ccc(F)cc3)c21 [Example 38, 5-Cyano-7-(4-fluorophenyl)-1-methylindole-2-carboxamide] | 0.19 | 203.5
5 | Cn1c(C(N)=O)cc2cc(C#N)cc(-c3ccc(Cl)cc3)c21 [Example 39, 7-(4-Chlorophenyl)-5-cyano-1-methylindole-2-carboxamide] | 0.18 | 176
6 | Cn1c(C(N)=O)cc2cc(C#N)cc(-c3ccc(F)c(F)c3)c21 [Example 40, 5-Cyano-7-(3,4-difluorophenyl)-1-methylindole-2-carboxamide] | 0.2 | 184.5
7 | N#Cc1cc(-c2ccc(F)cc2F)c2[nH]c(C(N)=O)cc2c1 [Example 41, 5-Cyano-7-(2,4-difluorophenyl)-1H-indole-2-carboxamide] | 0.025 | 289.5
8 | N#Cc1cc(-c2ccc(Cl)cc2Cl)c2[nH]c(C(N)=O)cc2c1 [Example 42, 5-Cyano-7-(2,4-dichlorophenyl)-1H-indole-2-carboxamide] | 0.047 | 276.5
9 | N#Cc1ccc(-c2cc(C#N)cc3cc(C(N)=O)[nH]c23)cc1 [Example 43, 5-Cyano-7-(4-cyanophenyl)-1H-indole-2-carboxamide] | 0.2 | 299
10 | N#Cc1cc(-c2ccc(OC(F)(F)F)cc2)c2[nH]c(C(N)=O)cc2c1 [Example 44, 5-Cyano-7-[4-(trifluoromethoxy)-phenyl]-1H-indole-2-carboxamide] | 0.17 | 247
11 | Cc1c(C(N)=O)[nH]c2c(-c3ccc(F)cc3)cc(F)cc12 [Example 45, 5-Fluoro-7-(4-fluorophenyl)-3-methyl-1H-indole-2-carboxamide] | 0.068 | 219
12 | Cc1c(C(N)=O)[nH]c2c(-c3ccc(Cl)cc3)cc(F)cc12 [Example 46, 7-(4-Chlorophenyl)-5-fluoro-3-methyl-1H-indole-2-carboxamide] | 0.066 | 230
13 | Cc1c(C(N)=O)[nH]c2c(-c3ccc(F)c(F)c3)cc(F)cc12 [Example 47, 7-(3,4-Difluorophenyl)-5-fluoro-3-methyl-1H-indole-2-carboxamide] | 0.052 | 208
14 | Cc1c(C(N)=O)[nH]c2c(-c3ccc(C(F)(F)F)cc3)cc(F)cc12 [Example 48, 5-Fluoro-3-methyl-7-[4-(trifluoromethyl)-phenyl]-1H-indole-2-carboxamide] | 0.11 | 200
15 | Cc1c(C(N)=O)n(C)c2c(-c3ccc(F)cc3)cc(F)cc12 [Example 49, 5-Fluoro-7-(4-fluorophenyl)-1,3-dimethylindole-2-carboxamide] | 0.17 | 202
16 | Cc1c(C(N)=O)n(C)c2c(-c3ccc(Cl)cc3)cc(F)cc12 [Example 50, 7-(4-Chlorophenyl)-5-fluoro-1,3-dimethylindole-2-carboxamide] | 0.12 | 210
17 | Cc1c(C(N)=O)n(C)c2c(-c3ccc(C(F)(F)F)cc3)cc(F)cc12 [Example 51, 5-Fluoro-1,3-dimethyl-7-[4-(trifluoromethyl)-phenyl]-indole-2-carboxamide] | 0.13 | 222

Row | Structure (SMILES) | EC (150% of control) [1] [µM] | melting point [°C]
18 | Cc1c(C(N)=O)n(C)c2c(-c3ccc(F)c(F)c3)cc(F)cc12 [Example 52, 7-(3,4-Difluorophenyl)-5-fluoro-1,3-dimethylindole-2-carboxamide] | 0.7 | 186
19 | Cc1c(C(N)=O)[nH]c2c(-c3ccc(C#N)cc3)cc(F)cc12 [Example 53, 7-(4-Cyanophenyl)-5-fluoro-3-methyl-1H-indole-2-carboxamide] | 0.04 | 230
20 | Cc1c(C(N)=O)[nH]c2c(-c3ccc(OC(F)(F)F)cc3)cc(F)cc12 [Example 54, 5-Fluoro-3-methyl-7-[4-(trifluoromethoxy)phenyl]-1H-indole-2-carboxamide] | 0.2 | 108
21 | Cc1c(C(N)=O)[nH]c2c(-c3ccc(F)cc3F)cc(F)cc12 [Example 55, 7-(2,4-Difluorophenyl)-5-fluoro-3-methyl-1H-indole-2-carboxamide] | 0.026 | 200
22 | Cc1c(C(N)=O)[nH]c2c(-c3ccc(Cl)cc3Cl)cc(F)cc12 [Example 56, 7-(2,4-Dichlorophenyl)-5-fluoro-3-methyl-1H-indole-2-carboxamide] | 0.027 | 198
23 | N#Cc1cc(-c2ccc(Cl)cc2F)c2[nH]c(C(N)=O)cc2c1 [Example 57, 7-(4-Chloro-2-fluorophenyl)-5-cyano-1H-indole-2-carboxamide] | 0.066 | 286.5
24 | Cn1c(C(N)=O)cc2cc(C#N)cc(-c3ccc(Cl)cc3F)c21 [Example 58, 7-(4-Chloro-2-fluorophenyl)-5-cyano-1-methylindole-2-carboxamide] | 1.67 | 192
25 | Cc1c(C(N)=O)n(C)c2c(-c3ccc(C#N)cc3)cc(F)cc12 [Example 59, 7-(4-Cyanophenyl)-5-fluoro-1,3-dimethylindole-2-carboxamide] | 0.083 | 245
26 | Cc1c(C(N)=O)n(C)c2c(-c3ccc(OC(F)(F)F)cc3)cc(F)cc12 [Example 60, 5-Fluoro-1,3-dimethyl-7-[4-(trifluoromethoxy)phenyl]indole-2-carboxamide] | 0.22 | 171
27 | Cc1c(C(N)=O)n(C)c2c(-c3ccc(Cl)cc3Cl)cc(F)cc12 [Example 61, 7-(2,4-Dichlorophenyl)-5-fluoro-1,3-dimethylindole-2-carboxamide] | 0.21 | 169
28 | Cn1c(C(N)=O)cc2cc(C#N)cc(-c3ccc(F)cc3F)c21 [Example 62, 5-Cyano-7-(2,4-difluorophenyl)-1-methylindole-2-carboxamide] | 0.12 | 206.5
29 | Cn1c(C(N)=O)cc2cc(C#N)cc(-c3ccc(Cl)cc3Cl)c21 [Example 63, 5-Cyano-7-(2,4-dichlorophenyl)-1-methylindole-2-carboxamide] | 0.21 | 222.5
30 | Cc1c(C(N)=O)n(C)c2c(-c3ccc(F)cc3F)cc(F)cc12 [Example 64, 7-(2,4-Difluorophenyl)-5-fluoro-1,3-dimethylindole-2-carboxamide] | 0.091 | 192
31 | Cc1cc(-c2cc(C#N)cc3cc(C(N)=O)[nH]c23)ccc1F [Example 66, 5-Cyano-7-(4-fluoro-3-methylphenyl)-1H-indole-2-carboxamide] | 0.62 | 247
32 | Cn1c(C(N)=O)cc2cc(C#N)cc(-c3ccc([N+](=O)[O-])cc3)c21 [Example 67, 5-Cyano-1-methyl-7-(4-nitrophenyl)-indole-2-carboxamide] | 2.05 | 236
33 | N#Cc1cc(-c2ccc([N+](=O)[O-])cc2)c2[nH]c(C(N)=O)cc2c1 [Example 68, 5-Cyano-7-(4-nitrophenyl)-1H-indole-2-carboxamide] | 0.071 | 269
34 | N#Cc1cc(-c2ccnc(Cl)c2)c2[nH]c(C(N)=O)cc2c1 [Example 70, 7-(2-Chloropyridin-4-yl)-5-cyano-1H-indole-2-carboxamide] | 0.14 | 297
